Results published in PubChem BioAssay AID330 (DTP/NCI, 2004).
Where “and” joins values, the source holds several entries; their conditions need not be identical. Equal entries are not always repeated. Inconclusive results and toxic doses are left out.

System: P388 leukemia ip, CD2F1 mice, survival T/C
Experiment: NCI In Vivo Anticancer Drug Screen. Data for tumor model P388 Leukemia (intraperitoneal) in CD2F1 (CDF1) mice
Settings: endpoint: median survival time, higher = longer survival
In short: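 Mice carrying the transplanted tumor received test compound or vehicle. Survival was recorded in each group, and the value is the treated-group measurement divided by that of the vehicle-treated control group.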

[1] = dose: 50.0 mg/kg/injection, schedule: Q01DX009 (ip), vehicle: saline with Tween-80
[2] = dose: 60.0 mg/kg/injection, schedule: Q01DX005 (ip), vehicle: saline with Tween-80
[3] = dose: 120.0 mg/kg/injection, schedule: Q01DX005 (ip), vehicle: saline with Tween-80
[4] = dose: 50.0 mg/kg/injection, schedule: Q01DX005 (ip), vehicle: Klucel (hydroxypropylcellulose) (HPC)
[5] = dose: 100.0 mg/kg/injection, schedule: Q01DX005 (ip), vehicle: Klucel (hydroxypropylcellulose) (HPC)
[6] = dose: 100.0 mg/kg/injection, schedule: Q01DX009 (ip), vehicle: saline with Tween-80
[7] = dose: 50.0 mg/kg/injection, schedule: Q01DX009 (ip), vehicle: Klucel (hydroxypropylcellulose) (HPC)
[8] = dose: 100.0 mg/kg/injection, schedule: Q01DX009 (ip), vehicle: Klucel (hydroxypropylcellulose) (HPC)

CC1/C(=N/O)C(=O)c2ccccc21 (configuration not stated)
T/C (dose: 12.5 mg/kg/injection, schedule: Q01DX009 (ip), vehicle: saline with Tween-80): 100 % of control
T/C (dose: 25.0 mg/kg/injection, schedule: Q01DX009 (ip), vehicle: saline with Tween-80): 95 % of control
T/C [1]: 100 % of control

CCN(CC)CCCC(C)Nc1cc(OC)c2nc(C)ccc2c1OC (configuration not stated)
T/C (dose: 0.78 mg/kg/injection, schedule: Q01DX009 (ip), vehicle: saline): 97 % of control
T/C (dose: 1.56 mg/kg/injection, schedule: Q01DX009 (ip), vehicle: saline): 100 % of control
T/C (dose: 3.12 mg/kg/injection, schedule: Q01DX009 (ip), vehicle: saline): 99 % of control and 97 % of control

CN(C)Cc1[nH]c2ccccc2c1Sc1ccccc1
T/C [2]: 100 % of control
T/C [3]: 119 % of control

CC(=O)CCCCCCCCCCCCCCC1=C(C)C(=O)OC1=O
T/C (dose: 25.0 mg/kg/injection, schedule: Q01DX005 (ip), vehicle: Klucel (hydroxypropylcellulose) (HPC)): 103 % of control
T/C [4]: 99 % of control
T/C [5]: 89 % of control
T/C (dose: 400.0 mg/kg/injection, schedule: Q01DX005 (ip), vehicle: Klucel (hydroxypropylcellulose) (HPC)): 96 % of control

O=C(N=Nc1c(Cl)c(O)c2ccccc2c1O)C(=O)Nc1ccc(Cl)c([N+](=O)[O-])c1
T/C [1]: 113 % of control
T/C [6]: 112 % of control

N#CC1C(=O)NC(=O)C(C#N)C1c1cccc(O)c1 (configuration not stated)
T/C [7]: 96 % of control
T/C [8]: 101 % of control
T/C (dose: 200.0 mg/kg/injection, schedule: Q01DX009 (ip), vehicle: Klucel (hydroxypropylcellulose) (HPC)): 97 % of control

CCCCCCCCCCC(C)c1ccc(S(=O)(=O)O)cc1 (configuration not stated)
T/C (dose: 50.0 mg/kg/injection, schedule: Q01DX001 (ip), vehicle: saline): 100 % of control
T/C (dose: 100.0 mg/kg/injection, schedule: Q01DX001 (ip), vehicle: saline): 90 % of control
T/C (dose: 200.0 mg/kg/injection, schedule: Q01DX001 (ip), vehicle: saline): 95 % of control

O=C(c1cc2c(cc1Br)OCO2)N1CCc2cc([N+](=O)[O-])ccc21
T/C (dose: 12.5 mg/kg/injection, schedule: Q01DX009 (ip), vehicle: other): 118 % of control
T/C (dose: 25.0 mg/kg/injection, schedule: Q01DX009 (ip), vehicle: other): 110 % of control
T/C (dose: 50.0 mg/kg/injection, schedule: Q01DX009 (ip), vehicle: other): 105 % of control
T/C (dose: 200.0 mg/kg/injection, schedule: Q01DX009 (ip), vehicle: other): 104 % of control

CNc1ncnc2ccc(Cl)cc12
T/C [7]: 93 % of control
T/C [8]: 102 % of control

COC(=O)C1=NOC2C(=O)N(c3ccccc3)C(=O)C12 (configuration not stated)
T/C (dose: 50.0 mg/kg/injection, schedule: Q01DX005 (ip), vehicle: saline with Tween-80): 96 % of control
T/C (dose: 100.0 mg/kg/injection, schedule: Q01DX005 (ip), vehicle: saline with Tween-80): 101 % of control

COc1ccc(C2c3cc4c(cc3OC(C)(O)C2C)OCO4)c(OC)c1OC (configuration not stated)
T/C (dose: 100.0 mg/kg/injection, schedule: Q04DX002 (ip), vehicle: saline with Tween-80): 100 % of control
T/C (dose: 200.0 mg/kg/injection, schedule: Q04DX002 (ip), vehicle: saline with Tween-80): 96 % of control
T/C (dose: 400.0 mg/kg/injection, schedule: Q04DX002 (ip), vehicle: saline with Tween-80): 86 % of control

CCOc1cccc(/C=N/n2c(C)nc3ccccc3c2=O)c1O
T/C [1]: 101 % of control
T/C [6]: 102 % of control
T/C (dose: 200.0 mg/kg/injection, schedule: Q01DX009 (ip), vehicle: saline with Tween-80): 96 % of control

CC1=CC(=O)[C@@H](O)[C@]2(C)[C@H]3[C@@]4(O)OC[C@]35[C@H]([C@@H](C)[C@H]4O)[C@@H](OC(=O)CC(C)C)C(=O)O[C@@H]5C[C@@H]12
T/C (dose: 0.5 mg/kg/injection, schedule: Q01DX005 (ip), vehicle: saline + alcohol): 104 % of control and 122 % of control
T/C (dose: 1.0 mg/kg/injection, schedule: Q01DX005 (ip), vehicle: saline + alcohol): 112 % of control

CCN(CC)C(=O)c1c2nc3c(C(=O)N(CC)CC)ccc(C)c3oc-2c(C)c(=O)c1N
T/C [2]: 98 % of control
T/C [3]: 88 % of control

COC1OCCC(n2c(C)cc3c(N)ncnc32)C1O (configuration not stated)
T/C [4]: 101 % of control and 102 % of control
T/C (dose: 60.0 mg/kg/injection, schedule: Q01DX005 (ip), vehicle: Klucel (hydroxypropylcellulose) (HPC)): 100 % of control
T/C [5]: 100 % of control and 103 % of control
T/C (dose: 120.0 mg/kg/injection, schedule: Q01DX005 (ip), vehicle: Klucel (hydroxypropylcellulose) (HPC)): 103 % of control
T/C (dose: 200.0 mg/kg/injection, schedule: Q01DX005 (ip), vehicle: Klucel (hydroxypropylcellulose) (HPC)): 93 % of control
T/C (dose: 240.0 mg/kg/injection, schedule: Q01DX005 (ip), vehicle: Klucel (hydroxypropylcellulose) (HPC)): 96 % of control

CC(C)(C)C1(c2ccccc2)C(=O)c2ccccc2C1=O
T/C (dose: 100.0 mg/kg/injection, schedule: Q04DX002 (ip), vehicle: saline): 100 % of control
T/C (dose: 200.0 mg/kg/injection, schedule: Q04DX002 (ip), vehicle: saline): 97 % of control
T/C (dose: 400.0 mg/kg/injection, schedule: Q04DX002 (ip), vehicle: saline): 101 % of control
